This note sets out measurements from PubChem BioAssay AID330 (DTP/NCI, 2004).

The assay concerns P388 leukemia ip, CD2F1 mice, survival T/C. The experiment in a line: NCI In Vivo Anticancer Drug Screen. Data for tumor model P388 Leukemia (intraperitoneal) in CD2F1 (CDF1) mice. The conditions noted are these: endpoint: median survival time, higher = longer survival. In short, it runs like this:
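Mice carrying the transplanted tumor received test compound or vehicle. Survival was recorded in each group, and the value is the treated-group measurement divided by that of the vehicle-treated control group.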

Where [1] appears, read: dose: 50.0 mg/kg/injection, schedule: Q01DX009 (ip), vehicle: saline with Tween-80.
Where [2] appears, read: dose: 100.0 mg/kg/injection, schedule: Q01DX009 (ip), vehicle: saline with Tween-80.
[3] abbreviates: dose: 200.0 mg/kg/injection, schedule: Q01DX009 (ip), vehicle: saline with Tween-80.
Setting [4] is: dose: 400.0 mg/kg/injection, schedule: Q01DX009 (ip), vehicle: saline with Tween-80.
The mark [5] stands for this setting: dose: 12.5 mg/kg/injection, schedule: Q01DX005 (ip), vehicle: Klucel (hydroxypropylcellulose) (HPC).
Setting [6] is: dose: 25.0 mg/kg/injection, schedule: Q01DX005 (ip), vehicle: Klucel (hydroxypropylcellulose) (HPC).
[7] abbreviates: dose: 50.0 mg/kg/injection, schedule: Q04DX003 (ip), vehicle: Klucel (hydroxypropylcellulose) (HPC).
Setting [8] is: dose: 100.0 mg/kg/injection, schedule: Q04DX003 (ip), vehicle: Klucel (hydroxypropylcellulose) (HPC).
[9] abbreviates: dose: 200.0 mg/kg/injection, schedule: Q04DX003 (ip), vehicle: Klucel (hydroxypropylcellulose) (HPC).

Several values for one entry are separate records, joined by “and”; a condition that tells them apart may be missing. Equal entries are not always repeated. Toxic doses and inconclusive results are not listed. Peptide text beside a SMILES is read from it.

For `COc1ccc2c(C)c[nH]c2c1`, the T/C is 100 % of control (dose: 100.0 mg/kg/injection, schedule: Q01DX001 (ip), vehicle: saline with Tween-80); 118 % of control (dose: 200.0 mg/kg/injection, schedule: Q01DX001 (ip), vehicle: saline with Tween-80); 100 % of control (dose: 400.0 mg/kg/injection, schedule: Q01DX001 (ip), vehicle: saline with Tween-80).

For `CCCCCCCCCCCCCCCCCC(=O)NC(CC(=O)OCCCCCC)c1ccc(N(CCCl)CCCl)cc1` (stereo unspecified), the T/C was 163 % of control (dose: 4.3 mg/kg/injection, schedule: Q01DX009 (ip), vehicle: saline); 186 % of control (dose: 8.6 mg/kg/injection, schedule: Q01DX009 (ip), vehicle: saline); 150 % of control (dose: 8.6 mg/kg/injection, schedule: Q03HX008 (ip), vehicle: saline); 213 % of control (dose: 17.2 mg/kg/injection, schedule: Q01DX009 (ip), vehicle: saline); 165 % of control (dose: 17.2 mg/kg/injection, schedule: Q03HX008 (ip), vehicle: saline); 200 % of control (dose: 34.4 mg/kg/injection, schedule: Q03HX008 (ip), vehicle: saline). The T/C is 250 % of control (dose: 34.5 mg/kg/injection, schedule: Q03HX008 (ip), vehicle: saline); 315 % of control (dose: 68.8 mg/kg/injection, schedule: Q03HX008 (ip), vehicle: saline); 168 % of control (dose: 138.0 mg/kg/injection, schedule: Q03HX008 (ip), vehicle: saline); 163 % of control (dose: 275.0 mg/kg/injection, schedule: Q03HX008 (ip), vehicle: saline).

Take `CC(C)(C)N1CCC1C(=O)O` (stereo unspecified): the T/C runs as follows: under setting [1], 92 % of control; under setting [2], 94 % of control; under setting [3], 88 % of control; under setting [4], 87 % of control.

With `Cc1cc2c(=O)cc(-c3ccc([N+](=O)[O-])cc3)oc2c(C#N)c1C`, the T/C is 92 % of control (dose: 60.0 mg/kg/injection, schedule: Q01DX005 (ip), vehicle: Klucel (hydroxypropylcellulose) (HPC)); 94 % of control (dose: 120.0 mg/kg/injection, schedule: Q01DX005 (ip), vehicle: Klucel (hydroxypropylcellulose) (HPC)); 87 % of control (dose: 240.0 mg/kg/injection, schedule: Q01DX005 (ip), vehicle: Klucel (hydroxypropylcellulose) (HPC)).

In the case of `Cc1ccc2ccccc2[n+]1CC(=O)c1ccc([N+](=O)[O-])cc1`, the T/C was 108 % of control (dose: 6.25 mg/kg/injection, schedule: Q01DX005 (ip), vehicle: Klucel (hydroxypropylcellulose) (HPC)); 108 % of control under setting [5]; 103 % of control under setting [6]; 96 % of control (dose: 50.0 mg/kg/injection, schedule: Q01DX005 (ip), vehicle: saline with Tween-80); 102 % of control (dose: 100.0 mg/kg/injection, schedule: Q01DX005 (ip), vehicle: saline with Tween-80); 111 % of control (dose: 200.0 mg/kg/injection, schedule: Q01DX005 (ip), vehicle: saline with Tween-80).

As for `CCOC(=O)C1C(c2ccc(C)cc2)C(C#N)C(=O)NC1(O)c1ccccc1` (stereo unspecified), the T/C reads like this: (dose: 100.0 mg/kg/injection, schedule: Q04DX002 (ip), vehicle: Klucel (hydroxypropylcellulose) (HPC)) 99 % of control; (dose: 200.0 mg/kg/injection, schedule: Q04DX002 (ip), vehicle: Klucel (hydroxypropylcellulose) (HPC)) 95 % of control; (dose: 400.0 mg/kg/injection, schedule: Q04DX002 (ip), vehicle: Klucel (hydroxypropylcellulose) (HPC)) 98 % of control.

Regarding `CC(C)CC(C(=O)O)N(C)C(=O)OC(C)(C)C` (stereo unspecified), the T/C runs as follows: (dose: 50.0 mg/kg/injection, schedule: Q01DX005 (ip), vehicle: Klucel (hydroxypropylcellulose) (HPC)) 101 % of control; (dose: 100.0 mg/kg/injection, schedule: Q01DX005 (ip), vehicle: Klucel (hydroxypropylcellulose) (HPC)) 93 % of control; (dose: 200.0 mg/kg/injection, schedule: Q01DX005 (ip), vehicle: Klucel (hydroxypropylcellulose) (HPC)) 99 % of control.

Consider `S=P(NCCNP(=S)(N1CC1)N1CC1)(N1CC1)N1CC1`, for which the T/C (dose: 25.0 mg/kg/injection, schedule: Q04DX003 (ip), vehicle: saline with Tween-80) was 122 % of control; the T/C (dose: 33.0 mg/kg/injection, schedule: Q04DX003 (ip), vehicle: saline with Tween-80) is 165 % of control; the T/C under setting [1] was 95 % of control; the T/C (dose: 50.0 mg/kg/injection, schedule: Q04DX003 (ip), vehicle: saline with Tween-80) was 170 % of control and 177 % of control; the T/C (dose: 75.0 mg/kg/injection, schedule: Q04DX003 (ip), vehicle: saline with Tween-80) is 90 % of control; the T/C (dose: 100.0 mg/kg/injection, schedule: Q04DX003 (ip), vehicle: saline with Tween-80) is 86 % of control.

As to `CCOC(=O)c1c(C)c2c(n1C)CCC(C(=O)OCC)C2=O` (stereo unspecified), the T/C under setting [7] is 107 % of control, the T/C under setting [8] is 100 % of control and the T/C under setting [9] was 91 % of control.

Regarding `CCN(CC)c1ccc2nc3c4ccccc4c(=O)cc-3n(-c3ccccc3)c2c1`, the T/C runs as follows: under setting [2], 99 % of control; under setting [3], 101 % of control; under setting [4], 115 % of control.

As to `CCCCN=NN(C)CCCC`, the T/C was 107 % of control (dose: 12.5 mg/kg/injection, schedule: Q01DX005 (ip), vehicle: saline with Tween-80) and 117 % of control (dose: 25.0 mg/kg/injection, schedule: Q01DX005 (ip), vehicle: saline with Tween-80).

As for `CC(C)CC(NC(=O)C(Cc1ccccc1)NC(=O)CNC(=O)CN)C(=O)O` (stereo unspecified) (H-GGFL-OH; configuration not given here), the T/C reads like this: (dose: 12.5 mg/kg/injection, schedule: Q01DX005 (ip), vehicle: water) 100 % of control; (dose: 25.0 mg/kg/injection, schedule: Q01DX005 (ip), vehicle: water) 100 % of control; (dose: 50.0 mg/kg/injection, schedule: Q01DX005 (ip), vehicle: water) 96 % of control; (dose: 100.0 mg/kg/injection, schedule: Q01DX005 (ip), vehicle: water) 102 % of control; (dose: 200.0 mg/kg/injection, schedule: Q01DX005 (ip), vehicle: water) 96 % of control.

In the case of `S=c1[nH]nc(-c2cnns2)o1`, the T/C by setting is: under setting [7], 103 % of control; under setting [8], 98 % of control; under setting [9], 107 % of control.

`CN1CC2CC3=C(CCC45CC6C(C=C34)C63CCC4(CC67CCC8C9(C)CCCC8%10C(C6CC4CC7%10)N(C)C9)OC53)C(C)(C2)C1` (stereo unspecified): the T/C (dose: 12.5 mg/kg/injection, schedule: Q01DX009 (ip), vehicle: Klucel (hydroxypropylcellulose) (HPC)) was 93 % of control; the T/C (dose: 25.0 mg/kg/injection, schedule: Q01DX009 (ip), vehicle: Klucel (hydroxypropylcellulose) (HPC)) is 103 % of control; the T/C (dose: 50.0 mg/kg/injection, schedule: Q01DX009 (ip), vehicle: Klucel (hydroxypropylcellulose) (HPC)) was 111 % of control.

For the compound `COc1c2ccoc2cc2oc(COC3OC(CO)C(O)C(O)C3O)cc(=O)c12` (stereo unspecified), the T/C was 100 % of control (dose: 12.5 mg/kg/injection, schedule: Q01DX005 (ip), vehicle: saline); 108 % of control (dose: 25.0 mg/kg/injection, schedule: Q01DX005 (ip), vehicle: saline); 106 % of control and 108 % of control (dose: 50.0 mg/kg/injection, schedule: Q01DX005 (ip), vehicle: saline).

On to `O=C(O)CCC(CS)C(=O)O` (stereo unspecified), for which the T/C by setting is: (dose: 0.5 mg/kg/injection, schedule: Q01DX005 (ip), vehicle: saline) 100 % of control; (dose: 1.0 mg/kg/injection, schedule: Q01DX005 (ip), vehicle: saline) 100 % of control; (dose: 2.0 mg/kg/injection, schedule: Q01DX005 (ip), vehicle: saline) 100 % of control; (dose: 4.0 mg/kg/injection, schedule: Q01DX005 (ip), vehicle: saline) 98 % of control; (dose: 8.0 mg/kg/injection, schedule: Q01DX005 (ip), vehicle: saline) 98 % of control; (dose: 16.0 mg/kg/injection, schedule: Q01DX005 (ip), vehicle: saline) 112 % of control. For the same compound, the T/C was 100 % of control (dose: 32.0 mg/kg/injection, schedule: Q01DX005 (ip), vehicle: saline); 96 % of control (dose: 64.0 mg/kg/injection, schedule: Q01DX005 (ip), vehicle: saline); 89 % of control (dose: 128.0 mg/kg/injection, schedule: Q01DX005 (ip), vehicle: saline).

As to `O=C(NCCCl)Oc1c(Cl)cc(Cl)cc1Cl`, the T/C under setting [5] is 106 % of control and the T/C under setting [6] was 104 % of control.
